According to publication PMC10702058, “Phase I dose escalation study and pilot efficacy analysis of LXI-15029, a novel mTOR dual inhibitor, in Chinese subjects with advanced malignant solid tumors” (BMC Cancer, 2023):

Assay: Phase I dose escalation: safety and tolerability (DLT, MTD, adverse events, NCI-CTCAE 4.03)

SMILES: CNC(=O)c1cccc(-c2ccc3c(N4C5CCC4COC5)nc(N4CCOC[C@@H]4C)nc3n2)c1 [LXI-15029]
- Patients with any TEAE (10 mg BID (n = 3)): 3 (100.0) n (%)
- Patients with any TEAE, maximum CTCAE Grade 1 (10 mg BID (n = 3)): 3 (100.0) n (%)
- Patients with any TEAE, maximum CTCAE Grade 2 (10 mg BID (n = 3)): 0 n (%)
- Patients with any TEAE, maximum CTCAE Grade 3 (10 mg BID (n = 3)): 0 n (%)
- ≥ 10% TRAE: ALT increased (10 mg BID (n = 3)): 0 n (%)
- ≥ 10% TRAE: AST increased (10 mg BID (n = 3)): 0 n (%)
- ≥ 10% TRAE: Decreased appetite (10 mg BID (n = 3)): 1 (33.3) n (%)
- ≥ 10% TRAE: Diarrhea (10 mg BID (n = 3)): 0 n (%)
- ≥ 10% TRAE: ECG QT prolonged (10 mg BID (n = 3)): 0 n (%)
- ≥ 10% TRAE: Fatigue (10 mg BID (n = 3)): 0 n (%)
- ≥ 10% TRAE: GGT increased (10 mg BID (n = 3)): 0 n (%)
- ≥ 10% TRAE: Hypercholesterolemia (10 mg BID (n = 3)): 0 n (%)
- ≥ 10% TRAE: Hypertriglyceridemia (10 mg BID (n = 3)): 0 n (%)
- ≥ 10% TRAE: LDL increased (10 mg BID (n = 3)): 0 n (%)
- ≥ 10% TRAE: Leukocytopenia (10 mg BID (n = 3)): 0 n (%)
- ≥ 10% TRAE: Neutropenia (10 mg BID (n = 3)): 0 n (%)
- ≥ 10% TRAE: Sinus bradycardia (10 mg BID (n = 3)): 0 n (%)
- Patients with any TEAE (20 mg BID (n = 3)): 3 (100.0) n (%)
- Patients with any TEAE, maximum CTCAE Grade 1 (20 mg BID (n = 3)): 2 (66.7) n (%)
- Patients with any TEAE, maximum CTCAE Grade 2 (20 mg BID (n = 3)): 1 (33.3) n (%)
- Patients with any TEAE, maximum CTCAE Grade 3 (20 mg BID (n = 3)): 0 n (%)
- ≥ 10% TRAE: ALT increased (20 mg BID (n = 3)): 1 (33.3) n (%)
- ≥ 10% TRAE: AST increased (20 mg BID (n = 3)): 0 n (%)
- ≥ 10% TRAE: Decreased appetite (20 mg BID (n = 3)): 0 n (%)
- ≥ 10% TRAE: Diarrhea (20 mg BID (n = 3)): 0 n (%)
- ≥ 10% TRAE: ECG QT prolonged (20 mg BID (n = 3)): 0 n (%)
- ≥ 10% TRAE: Fatigue (20 mg BID (n = 3)): 1 (33.3) n (%)
- ≥ 10% TRAE: GGT increased (20 mg BID (n = 3)): 1 (33.3) n (%)
- ≥ 10% TRAE: Hypercholesterolemia (20 mg BID (n = 3)): 0 n (%)
- ≥ 10% TRAE: Hypertriglyceridemia (20 mg BID (n = 3)): 1 (33.3) n (%)
- ≥ 10% TRAE: LDL increased (20 mg BID (n = 3)): 1 (33.3) n (%)
- ≥ 10% TRAE: Leukocytopenia (20 mg BID (n = 3)): 1 (33.3) n (%)
- ≥ 10% TRAE: Neutropenia (20 mg BID (n = 3)): 0 n (%)
- ≥ 10% TRAE: Sinus bradycardia (20 mg BID (n = 3)): 1 (33.3) n (%)
- Patients with any TEAE (40 mg BID (n = 3)): 2 (66.7) n (%)
- Patients with any TEAE, maximum CTCAE Grade 1 (40 mg BID (n = 3)): 1 (33.3) n (%)
- Patients with any TEAE, maximum CTCAE Grade 2 (40 mg BID (n = 3)): 1 (33.3) n (%)
- Patients with any TEAE, maximum CTCAE Grade 3 (40 mg BID (n = 3)): 0 n (%)
- ≥ 10% TRAE: ALT increased (40 mg BID (n = 3)): 0 n (%)
- ≥ 10% TRAE: AST increased (40 mg BID (n = 3)): 0 n (%)
- ≥ 10% TRAE: Decreased appetite (40 mg BID (n = 3)): 0 n (%)
- ≥ 10% TRAE: Diarrhea (40 mg BID (n = 3)): 0 n (%)
- ≥ 10% TRAE: ECG QT prolonged (40 mg BID (n = 3)): 0 n (%)
- ≥ 10% TRAE: Fatigue (40 mg BID (n = 3)): 0 n (%)
- ≥ 10% TRAE: GGT increased (40 mg BID (n = 3)): 0 n (%)
- ≥ 10% TRAE: Hypercholesterolemia (40 mg BID (n = 3)): 0 n (%)
- ≥ 10% TRAE: Hypertriglyceridemia (40 mg BID (n = 3)): 1 (33.3) n (%)
- ≥ 10% TRAE: LDL increased (40 mg BID (n = 3)): 1 (33.3) n (%)
- ≥ 10% TRAE: Leukocytopenia (40 mg BID (n = 3)): 2 (66.7) n (%)
- ≥ 10% TRAE: Neutropenia (40 mg BID (n = 3)): 0 n (%)
- ≥ 10% TRAE: Sinus bradycardia (40 mg BID (n = 3)): 0 n (%)
- Patients with any TEAE (60 mg BID (n = 4)): 3 (75.0) n (%)
- Patients with any TEAE, maximum CTCAE Grade 1 (60 mg BID (n = 4)): 1 (25.0) n (%)
- Patients with any TEAE, maximum CTCAE Grade 2 (60 mg BID (n = 4)): 2 (50.0) n (%)
- Patients with any TEAE, maximum CTCAE Grade 3 (60 mg BID (n = 4)): 0 n (%)
- ≥ 10% TRAE: ALT increased (60 mg BID (n = 4)): 1 (25.0) n (%)
- ≥ 10% TRAE: AST increased (60 mg BID (n = 4)): 1 (25.0) n (%)
- ≥ 10% TRAE: Decreased appetite (60 mg BID (n = 4)): 0 n (%)
- ≥ 10% TRAE: Diarrhea (60 mg BID (n = 4)): 2 (50.0) n (%)
- ≥ 10% TRAE: ECG QT prolonged (60 mg BID (n = 4)): 2 (50.0) n (%)
- ≥ 10% TRAE: Fatigue (60 mg BID (n = 4)): 1 (25.0) n (%)
- ≥ 10% TRAE: GGT increased (60 mg BID (n = 4)): 1 (25.0) n (%)
- ≥ 10% TRAE: Hypercholesterolemia (60 mg BID (n = 4)): 3 (75.0) n (%)
- ≥ 10% TRAE: Hypertriglyceridemia (60 mg BID (n = 4)): 2 (50.0) n (%)
- ≥ 10% TRAE: LDL increased (60 mg BID (n = 4)): 1 (25.0) n (%)
- ≥ 10% TRAE: Leukocytopenia (60 mg BID (n = 4)): 1 (25.0) n (%)
- ≥ 10% TRAE: Neutropenia (60 mg BID (n = 4)): 1 (25.0) n (%)
- ≥ 10% TRAE: Sinus bradycardia (60 mg BID (n = 4)): 1 (25.0) n (%)
- Patients with any TEAE (80 mg BID (n = 4)): 4 (100.0) n (%)
- Patients with any TEAE, maximum CTCAE Grade 1 (80 mg BID (n = 4)): 3 (75.0) n (%)
- Patients with any TEAE, maximum CTCAE Grade 2 (80 mg BID (n = 4)): 1 (25.0) n (%)
- Patients with any TEAE, maximum CTCAE Grade 3 (80 mg BID (n = 4)): 0 n (%)
- ≥ 10% TRAE: ALT increased (80 mg BID (n = 4)): 0 n (%)
- ≥ 10% TRAE: AST increased (80 mg BID (n = 4)): 0 n (%)
- ≥ 10% TRAE: Decreased appetite (80 mg BID (n = 4)): 1 (25.0) n (%)
- ≥ 10% TRAE: Diarrhea (80 mg BID (n = 4)): 2 (50.0) n (%)
- ≥ 10% TRAE: ECG QT prolonged (80 mg BID (n = 4)): 1 (25.0) n (%)
- ≥ 10% TRAE: Fatigue (80 mg BID (n = 4)): 2 (50.0) n (%)
- ≥ 10% TRAE: GGT increased (80 mg BID (n = 4)): 0 n (%)
